We go through twelve compounds from patent US20100160369A1, “S1P1 Agonists and Methods of Making And Using” (EXELIXIS, INC., priority 2008, published 2010).

Assay [1] deals with T1, S1P1 (Homo sapiens, UniProt P21453). As to the kind of experiment: Tango β-arrestin Recruitment Assay in U2OS cells (Assay 2b). Format: cell-based. Details: linker with TEV protease (N1a) cleavage site (C). Conditions: Tango β-arrestin Recruitment Assay, read-out: Assay 2b EC50. The essentials: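 U2OS cells expressing S1P1 and reporter, serum-starved 48 h, treated with compound (10-point 3-fold series, top 1 μM, 1% DMSO) overnight at 37 °C; β-lactamase substrate added 2 h at room temperature. F460/F530 ratio normalised to 1 μM S1P (100%) and DMSO; EC50 from concentration-response.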
Background: Arrestin recruitment assays detect the binding of arrestin to an activated receptor.
Target sequence in this assay (P21453 whole entry): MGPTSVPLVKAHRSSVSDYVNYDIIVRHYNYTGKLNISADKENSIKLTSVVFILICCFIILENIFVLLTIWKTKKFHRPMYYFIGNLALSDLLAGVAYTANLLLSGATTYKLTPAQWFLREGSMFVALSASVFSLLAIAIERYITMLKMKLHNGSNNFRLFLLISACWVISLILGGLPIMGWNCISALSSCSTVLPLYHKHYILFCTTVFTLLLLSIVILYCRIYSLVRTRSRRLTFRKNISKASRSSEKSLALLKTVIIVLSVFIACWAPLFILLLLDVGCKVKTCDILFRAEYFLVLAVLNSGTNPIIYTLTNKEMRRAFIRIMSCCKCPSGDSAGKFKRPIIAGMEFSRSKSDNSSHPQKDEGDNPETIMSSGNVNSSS
Target sequence in this assay (P32121 whole entry partner): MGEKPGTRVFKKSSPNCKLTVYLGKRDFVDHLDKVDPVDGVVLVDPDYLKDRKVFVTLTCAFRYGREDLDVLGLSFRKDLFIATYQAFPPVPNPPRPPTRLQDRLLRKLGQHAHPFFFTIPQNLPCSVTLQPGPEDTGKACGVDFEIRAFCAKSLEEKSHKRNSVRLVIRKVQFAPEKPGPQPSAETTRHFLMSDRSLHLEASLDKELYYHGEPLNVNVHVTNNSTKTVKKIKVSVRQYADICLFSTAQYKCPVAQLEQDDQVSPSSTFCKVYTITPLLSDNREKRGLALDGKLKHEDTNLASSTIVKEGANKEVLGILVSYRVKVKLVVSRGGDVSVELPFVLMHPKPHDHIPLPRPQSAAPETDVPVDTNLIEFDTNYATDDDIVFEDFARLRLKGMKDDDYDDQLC

Assay [2] has as its target T1, S1P1. Put plainly: DELFIA GTP-Eu Binding Assay (Assay 3b). Format: biochemical. Particulars: read-out: Assay 3b EC50. Further details: purchased Lonza; host or cells: CHO cell membranes. The protocol:
The DELFIA GTP-Eu binding assay (PerkinElmer) is a time-resolved fluorometric assay based on GDP-GTP exchange. CHO cell membranes (Lonza) expressing human S1P1 were incubated in 96-well filter plates (Pall, East Hills, N.Y.) in a final volume of 100 μL/well buffer containing 40 μg/mL membrane, 50 mM HEPES, 2 μM GDP, 10 mM MgCl2, 100 mM NaCl, 500 μg/mL Saponin and test compound. Test compounds were tested at maximum concentrations of 10 μM. Compounds were diluted (10 concentration points, 3-fold each) and added to the assay plate at a 1% final DMSO concentration. For each compound, there were duplicate assay plates and each assay plate had duplicate wells per concentration point. The plates were incubated for 30 min at room temperature on a plate shaker at low speed. GTP-Eu was added to each well (10 μL, 10 nM final concentration) and the plate was incubated for an additional 30 min with slow shaking The wells were washed with ice cold GTP washing buffer (3×150 μL) using a vacuum manifold and the assay plates read in an EnVision plate reader (PerkinElmer) at an excitation wavelength of 340 nm and an emission wavelength of 615 nm. To determine agonist activity, percent activity was calculated as [(test compound−background)/(positive control−background)*100], where background is the fluorescence in absence of compound and the positive control is the fluorescence from membranes incubated with 1 μM S1P (Avanti). The percent activities were plotted against compound concentration to determine IC50 or EC50 using XLFit (IDBS).
Assay 1 is the CNG cAMP Assay as described in Biological Example 1. Assay 2a and 2b are the Tango™ β-arrestin Recruitment Assay in HEK293 and U2OS cells, respectively, as described in Biological Example 2. Assay 3a is the hS1P1R GTPγS Binding Assay as described in Biological Example 3. Assay 3b is the GTP-Eu Binding Assay as described in Biological Example 3. EC50's were measured unless otherwise noted. […] In the table, “nt” means the Compound was not tested and “no” means the compound was tested but had no measurable activity under the assay conditions employed.
Target sequence in this assay (P21453 whole entry): as the sequence (P21453 whole entry) above

In the case of `O=C(O)CCc1cc(Cl)c(-c2noc(-c3cn4cc(C(F)(F)F)cc(Cl)c4n3)n2)cc1F` [Entry 24], the 50% effective concentration (EC50) in assay [1] and in assay [2] was no more than 100 nM in each case.
As for `O=C(O)CCc1cc(Cl)c(-c2noc(-c3cn4cc(C(F)(F)F)cc(Br)c4n3)n2)cc1F` [Entry 49], the EC50 in assay [1] was no more than 100 nM; in assay [2], 100 to 500 nM.
In the same order, the values of `Cc1cc(CCC(=O)O)c(Cl)cc1-c1noc(-c2cn3cc(C(F)(F)F)cc(Cl)c3n2)n1` [Entry 56] are no more than 100 nM and no more than 100 nM.
On the same counts, the results for `C[C@H](CO)Oc1cc(Cl)c(-c2noc(-c3cn4cc(C(F)(F)F)cc(Cl)c4n3)n2)cc1F` [Example 93, (2R)-2-[(5-chloro-4-{5-[8-chloro-6-(trifluoromethyl)imidazo[1,2-a]pyridin-2-yl]-1,2,4-oxadiazol-3-yl}-2-fluorophenyl)oxy]propan-1-ol] are no more than 100 nM and no more than 100 nM.
Regarding `O=C(O)CCc1cc(Cl)c(-c2nnc(-c3cn4cc(C(F)(F)F)cc(Cl)c4n3)s2)cc1F` [Example 176, 3-(5-chloro-4-{5-[8-chloro-6-(trifluoromethyl)imidazo[1,2-a]pyridin-2-yl]-1,3,4-thiadiazol-2-yl}-2-fluorophenyl)propanoic acid], the concentration for a half-maximal effect (EC50) in assay [1] and in assay [2] was no more than 100 nM each time.
For the compound `O=C(O)CCc1cc(Cl)c(-c2nnc(-c3cn4cc(C(F)(F)F)cc(Br)c4n3)s2)cc1F` [Example 177, 3-(4-{5-[8-bromo-6-(trifluoromethyl)imidazo[1,2-a]pyridin-2-yl]-1,3,4-thiadiazol-2-yl}-5-chloro-2-fluorophenyl)propanoic acid], the half-maximal effective concentration (EC50) in assay [1] and in assay [2] was no more than 100 nM each time.
With `OCC(O)COc1cc(Cl)c(-c2noc(-c3cn4cc(C(F)(F)F)cc(Cl)c4n3)n2)cc1Cl` (stereo not drawn) [Example 208, 3-[(2,5-dichloro-4-{5-[8-chloro-6-(trifluoromethyl)imidazo[1,2-a]pyridin-2-yl]-1,2,4-oxadiazol-3-yl}phenyl)oxy]propane-1,2-diol], the EC50 in assay [1] is no more than 100 nM; in assay [2], 100 to 500 nM.
For the compound `O=C(O)CCc1cc(Cl)c(-c2nc(-c3cn4cc(C(F)(F)F)cc(Cl)c4n3)no2)cc1F` [Example 233, 3-(5-chloro-4-{3-[8-chloro-6-(trifluoromethyl)imidazo[1,2-a]pyridin-2-yl]-1,2,4-oxadiazol-5-yl}-2-fluorophenyl)propanoic acid], the EC50 in assay [1] is no more than 100 nM; in assay [2], 100 to 500 nM.
On the same counts, the results for `O=C(O)CCc1cc(Cl)c(-c2noc(-c3cn4cc(C(F)(F)F)cc(Cl)c4n3)n2)cc1Cl` [Example 242, 3-(2,5-dichloro-4-{5-[8-chloro-6-(trifluoromethyl)imidazo[1,2-a]pyridin-2-yl]-1,2,4-oxadiazol-3-yl}phenyl)propanoic acid] are no more than 100 nM and no more than 100 nM.
On the same counts, the results for `OCCOc1cc(Cl)c(-c2noc(-c3cn4cc(C(F)(F)F)cc(Cl)c4n3)n2)cc1F` [Example 263, 2-[(5-chloro-4-{5-[8-chloro-6-(trifluoromethyl)imidazo[1,2-a]pyridin-2-yl]-1,2,4-oxadiazol-3-yl}-2-fluorophenyl)oxy]ethanol] are no more than 100 nM and 100 to 500 nM.
As to `CC(C)Oc1cc(Cl)c2nc(-c3nc(-c4cc(F)c(CCC(=O)O)cc4Cl)no3)cn2c1` [Example 301, 3-[5-chloro-4-(5-{8-chloro-6-[(1-methylethyl)oxy]imidazo[1,2-a]pyridin-2-yl}-1,2,4-oxadiazol-3-yl)-2-fluorophenyl]propanoic acid], the EC50 in assay [1] and in assay [2] was no more than 100 nM throughout.
For `O=C(O)CCc1cc(Cl)c(-c2noc(-c3cn4cc(I)cc(Cl)c4n3)n2)cc1F` [Example 302, 3-{5-chloro-4-[5-(8-chloro-6-iodoimidazo[1,2-a]pyridin-2-yl)-1,2,4-oxadiazol-3-yl]-2-fluorophenyl}propanoic acid], the EC50 in assay [1] and in assay [2] was no more than 100 nM throughout.

For orientation: EC50 means the concentration at which the effect is half-maximal.
